From PubChem BioAssay (NCI) come the findings set out here.

Structures are written as SMILES.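 Five concentrations, 48 hours, 96-well plates. GI50 marks 50% less growth. TGI denotes the concentration required for complete inhibition of growth.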

Test systems include COLO 205 colon; IGROV1 ovarian; LOX IMVI melanoma; NCI-H226 lung; NCI-H460 lung; NCI-H522 lung; U251 CNS; CCRF-CEM leukemia; OVCAR-4 ovarian.
Test in all cases: growth of human tumour cells (NCI), 48 h

On to `Cn1c(=O)c2[nH]c(COc3ccc(C(C)(C)C)cc3)nc2n(C)c1=O`, for which the GI50 with COLO 205 colon is 50.3 µM; in the test on IGROV1 ovarian, 14.1 µM; with LOX IMVI melanoma, 19.9 µM; in the test on NCI-H226 lung, 25.6 µM; in the test on NCI-H460 lung, 15.4 µM; in the test on NCI-H522 lung it was 19.6 µM. The GI50 with U251 CNS is 37.5 µM. Besides, the TGI with COLO 205 colon was greater than 100 µM; in the test on IGROV1 ovarian, 44.5 µM; with LOX IMVI melanoma, greater than 100 µM; with NCI-H226 lung it was greater than 100 µM; in the test on NCI-H460 lung, greater than 100 µM; in the test with NCI-H522 lung it was 88 µM. Moreover, the TGI in the test with U251 CNS was greater than 100 µM.

On to `CC1=C2C(c3ccccc3)(c3ccccc3)C3C=CC2(C=N3)N(C(=O)NC2CCCCC2)C1=O` (centres undefined), for which the TGI in the test with CCRF-CEM leukemia was 36.1 µM; in the test on COLO 205 colon it was 29.3 µM; in the test on IGROV1 ovarian, 35.7 µM; with LOX IMVI melanoma, 29.5 µM; in the test on OVCAR-4 ovarian, 31.5 µM; in the test on U251 CNS it was 30.6 µM.

As for `Cc1cc(C)nc(NS(=O)(=O)c2ccc(NC(=O)c3cccc4cc5ccccc5nc34)cc2)n1`, the TGI with CCRF-CEM leukemia was 77.5 µM; in the test with COLO 205 colon, greater than 100 µM; with IGROV1 ovarian, greater than 100 µM; in the test with LOX IMVI melanoma it was 56.1 µM; with NCI-H226 lung, 46.5 µM; in the test on NCI-H460 lung, greater than 100 µM. The figures for the TGI with NCI-H522 lung, in the test with OVCAR-4 ovarian and in the test with U251 CNS were 54.3 µM, greater than 100 µM and greater than 100 µM, respectively.

As for `COc1cc(Br)c(CC2=NCCc3cc(OC)c(OC)cc32)cc1OC`, the TGI in the test with CCRF-CEM leukemia, in the test on COLO 205 colon, in the test on IGROV1 ovarian, in the test on LOX IMVI melanoma, with NCI-H226 lung and with NCI-H460 lung was greater than 100 µM in each case. The values for the TGI in the test with NCI-H522 lung, in the test on OVCAR-4 ovarian and in the test on U251 CNS were 65.2 µM, greater than 100 µM and greater than 100 µM, respectively.

Turning to `O=[N+]([O-])c1ccccc1C1N2CCCCC2[C@@H]2c3[nH]c4ccccc4c3CCN12` (some centres undefined), the TGI in the test with CCRF-CEM leukemia is 30.4 µM; in the test on COLO 205 colon, 25.8 µM; in the test on IGROV1 ovarian, 40.9 µM; in the test with NCI-H460 lung it was 34.7 µM; in the test on OVCAR-4 ovarian, 32.3 µM; with U251 CNS, 31.3 µM.

As for `Cn1c(O)c(C(=O)Nc2ccc([N+](=O)[O-])cc2)c(=O)n(C)c1=S`, the TGI was greater than 100 µM with CCRF-CEM leukemia; 19.9 µM in the test on COLO 205 colon; 10.1 µM with IGROV1 ovarian; greater than 24.9 µM in the test with LOX IMVI melanoma; 9.85 µM with NCI-H226 lung; 24.1 µM in the test on NCI-H460 lung. The TGI in the test with NCI-H522 lung was greater than 100 µM; with OVCAR-4 ovarian it was 13.5 µM; in the test with U251 CNS, 7.67 µM.

With `Cc1ccc(Nc2ccc(Nc3ccc(C)cc3)c3c2C(=O)c2c(O)ccc(O)c2C3=O)cc1`, the TGI in the test with CCRF-CEM leukemia, in the test on COLO 205 colon, in the test with IGROV1 ovarian, with LOX IMVI melanoma, with NCI-H460 lung and in the test with NCI-H522 lung was greater than 100 µM throughout. The TGI in the test with OVCAR-4 ovarian and in the test with U251 CNS was greater than 100 µM in each case.

On to `C/C(=N\Nc1ccc([N+](=O)[O-])cc1)C(=O)N(C)Nc1ccccc1`, for which the TGI in the test on CCRF-CEM leukemia, in the test with COLO 205 colon, in the test on IGROV1 ovarian, with LOX IMVI melanoma, in the test with NCI-H226 lung and in the test on NCI-H460 lung was greater than 100 µM in each case. For the same molecule, the TGI in the test on NCI-H522 lung, in the test on OVCAR-4 ovarian and in the test on U251 CNS was greater than 100 µM in each case.

In the case of `COc1cc(C2C(C(=O)Nc3ccccc3)=C(C)NC(C)=C2C(=O)Nc2ccccc2)ccc1O`, the TGI with COLO 205 colon is 60.4 µM; in the test with IGROV1 ovarian, greater than 100 µM; in the test on NCI-H226 lung, greater than 100 µM; in the test on NCI-H460 lung, greater than 100 µM; in the test with OVCAR-4 ovarian, greater than 100 µM; in the test with U251 CNS, greater than 100 µM.

Take `O=C1C2=C(c3ccccc31)C(c1ccccc1Cl)N1C(=O)CSC1=N2` (centres undefined): the TGI in the test with CCRF-CEM leukemia, in the test with COLO 205 colon, in the test with IGROV1 ovarian, with LOX IMVI melanoma, with NCI-H226 lung and with NCI-H460 lung was greater than 100 µM in each case. Also, the TGI in the test on NCI-H522 lung is 88.7 µM; in the test on OVCAR-4 ovarian, greater than 100 µM; with U251 CNS, greater than 100 µM.

Regarding `Cc1ccc(NC(=O)C(=O)Cc2nc3ccccc3o2)c(C)c1`, the TGI with COLO 205 colon, with IGROV1 ovarian, in the test on LOX IMVI melanoma, in the test with NCI-H226 lung, with NCI-H460 lung and in the test on OVCAR-4 ovarian was greater than 100 µM in each case. Also, the TGI in the test with U251 CNS is greater than 100 µM.

For the molecule `O=c1nc2cc(-c3ccccc3)[nH]c2nn1-c1c(Cl)cc(Cl)cc1Cl`, the TGI with CCRF-CEM leukemia was 76.2 µM; with COLO 205 colon, 32.9 µM; in the test with IGROV1 ovarian it was greater than 100 µM; in the test on LOX IMVI melanoma, 50 µM; in the test on NCI-H226 lung it was 60.9 µM; in the test on NCI-H460 lung, greater than 100 µM. In addition, the TGI turned out to be 52.1 µM with NCI-H522 lung and 34.2 µM in the test on U251 CNS.

For `C[Si](C)(C)/C=C/CN1C(=O)CCC1O` (centres undefined), the TGI with CCRF-CEM leukemia, in the test on COLO 205 colon, in the test with IGROV1 ovarian, in the test with LOX IMVI melanoma, in the test on NCI-H226 lung and with NCI-H460 lung was greater than 100 µM each time. Also, the TGI with NCI-H522 lung, with OVCAR-4 ovarian and with U251 CNS was greater than 100 µM in each case.

Regarding `O=c1c([Se]c2coc3ccccc3c2=O)coc2ccccc12`, the TGI was greater than 100 µM in the test on CCRF-CEM leukemia; 29.7 µM in the test with COLO 205 colon; 22.3 µM in the test on IGROV1 ovarian; 29.5 µM with LOX IMVI melanoma; 28.2 µM with NCI-H226 lung; 14 µM in the test with NCI-H460 lung. The TGI in the test with NCI-H522 lung came out at 32.5 µM; with OVCAR-4 ovarian, 32.6 µM; in the test on U251 CNS it was 19.8 µM.

`COC(=O)C1=C(C(=O)OC)C2(C(=O)OC)OC1(OC)C(C1(C(=O)OC)C(C(=O)OC)=C1C(=O)OC)=C2C(=O)OC` (centres undefined): the TGI with CCRF-CEM leukemia, in the test with COLO 205 colon, with IGROV1 ovarian, in the test on LOX IMVI melanoma, in the test on NCI-H226 lung and in the test on NCI-H460 lung was greater than 100 µM throughout. Further, the TGI in the test on NCI-H522 lung and in the test on U251 CNS was greater than 100 µM throughout.

On to `CC[C@@H]1OC2(C)CC(S(=O)(=O)c3ccccc3)CC1O2` (some centres undefined), for which the TGI with CCRF-CEM leukemia, in the test on COLO 205 colon, in the test with IGROV1 ovarian, in the test on NCI-H226 lung, in the test on NCI-H460 lung and with NCI-H522 lung was greater than 100 µM each time. Moreover, the TGI with OVCAR-4 ovarian and in the test with U251 CNS was greater than 100 µM throughout.
